Literature values in patent publication US20030232784A1, “Hyaluronic acid-associated superoxide dismutase mimics and their use in the treatment of joint pain” (priority 2002, published 2003).

System: patients with active classical rheumatoid arthritis

Orgotein®: a bovine SOD with a Cu/Zn catalytic site
effect on rheumatoid arthritis symptoms (intraarticular injection, patients with active classical rheumatoid arthritis): ameliorated a number of symptoms | immunogenicity (reason for removal from the market): development of immune responses against the bovine enzyme
